Measurements as given in ChEMBL document CHEMBL3784999, “Investigation of 4-amino-5-alkynylpyrimidine-2(1H)-ones as anti-mycobacterial agents” (Bioorg Med Chem, 2016).
Values after ≈ are worked out from the molar mass of the structure shown. Active and inactive are the calls of the source. The rule behind the calls is not given here.

How the values were obtained:
Mycobacterium avium = assay: Antimycobacterial activity against Mycobacterium avium ATCC 25291 assessed as inhibition of mycobacterial replication after 6 days by microplate Alamar blue assay; type: functional, Mycobacterium avium subsp. avium ATCC 25291; details: ATCC 25291, 144 h
[1] = tested on: Mycobacterium tuberculosis; assay: Antimycobacterial activity against Mycobacterium tuberculosis H37Ra assessed as inhibition of mycobacterial replication after 6 days by microplate Alamar blue assay; type: functional; details: 144 h
Mus musculus [2] = assay: Toxicity in BALB/c mouse infected with Mycobacterium tuberculosis H37Ra assessed as behavioral changes at 6.25 to 25 mg/kg, po administered for 2 weeks started on day 4 post bacterial infection; type: organism-based; details: in vivo, 336 h
Mus musculus [3] = assay: Toxicity in BALB/c mouse infected with Mycobacterium tuberculosis H37Ra assessed as change in cholesterol level in serum at 6.25 to 25 mg/kg, po administered for 2 weeks started on day 4 post bacterial infection in presence of isoniazid; type: organism-based; details: in vivo, 336 h
Mus musculus [4] = assay: Toxicity in BALB/c mouse infected with Mycobacterium tuberculosis H37Ra assessed as change in phosphate level in serum at 6.25 to 25 mg/kg, po administered for 2 weeks started on day 4 post bacterial infection; type: organism-based; details: in vivo, 336 h
Mus musculus [5] = assay: Toxicity in BALB/c mouse infected with Mycobacterium tuberculosis H37Ra assessed as change in amylase level in serum at 6.25 to 25 mg/kg, po administered for 2 weeks started on day 4 post bacterial infection; type: organism-based; details: in vivo, 336 h
[6] = tested on: Mycobacterium tuberculosis; assay: Antimycobacterial activity against Mycobacterium tuberculosis H37Ra infected in BALB/c mouse assessed as reduction of bacterial load in spleen at 12.5 mg/kg, po administered for 2 weeks started on day 4 post bacterial infection measured 3 days post last dose co-treated with 1 mg/kg, po isoniazid; type: functional
Mus musculus [7] = assay: Toxicity in BALB/c mouse infected with Mycobacterium tuberculosis H37Ra assessed as behavioral changes at 6.25 to 25 mg/kg, po administered for 2 weeks started on day 4 post bacterial infection in presence of isoniazid; type: organism-based; details: in vivo, 336 h
[8] = tested on: Mycobacterium tuberculosis; assay: Antimycobacterial activity against Mycobacterium tuberculosis H37Ra infected in BALB/c mouse assessed as reduction of bacterial load in lung at 12.5 mg/kg, po administered for 2 weeks started on day 4 post bacterial infection measured 3 days post last dose co-treated with 1 mg/kg, po isoniazid; type: functional
[9] = tested on: Mycobacterium tuberculosis; assay: Antimycobacterial activity against Mycobacterium tuberculosis H37Ra infected in BALB/c mouse assessed as reduction of bacterial load in spleen at 25 mg/kg, po administered for 2 weeks started on day 4 post bacterial infection measured 3 days post last dose; type: functional
[10] = tested on: Mycobacterium tuberculosis; assay: Antimycobacterial activity against Mycobacterium tuberculosis H37Ra infected in BALB/c mouse assessed as reduction of bacterial load in liver at 25 mg/kg, po administered for 2 weeks started on day 4 post bacterial infection measured 3 days post last dose; type: functional
Mus musculus [11] = assay: Toxicity in BALB/c mouse infected with Mycobacterium tuberculosis H37Ra assessed as change in alkaline phosphatase level in serum at 6.25 to 25 mg/kg, po administered for 2 weeks started on day 4 post bacterial infection; type: organism-based; details: in vivo, 336 h
Mus musculus [12] = assay: Toxicity in BALB/c mouse infected with Mycobacterium tuberculosis H37Ra at 6.25 to 25 mg/kg, po administered for 2 weeks started on day 4 post bacterial infection by necroscopy in presence of isoniazid; type: organism-based; details: in vivo, 336 h
Mus musculus [13] = assay: Toxicity in BALB/c mouse infected with Mycobacterium tuberculosis H37Ra assessed as weight loss at 6.25 to 25 mg/kg, po administered for 2 weeks started on day 4 post bacterial infection; type: organism-based; details: in vivo, 336 h
Mus musculus [14] = assay: Toxicity in BALB/c mouse infected with Mycobacterium tuberculosis H37Ra assessed as change in amylase level in serum at 6.25 to 25 mg/kg, po administered for 2 weeks started on day 4 post bacterial infection in presence of isoniazid; type: organism-based; details: in vivo, 336 h
Mus musculus [15] = assay: Toxicity in BALB/c mouse infected with Mycobacterium tuberculosis H37Ra assessed as change in calcium level in serum at 6.25 to 25 mg/kg, po administered for 2 weeks started on day 4 post bacterial infection; type: organism-based; details: in vivo, 336 h
Mus musculus [16] = assay: Toxicity in BALB/c mouse infected with Mycobacterium tuberculosis H37Ra assessed as gross necroscopy changes at 6.25 to 25 mg/kg, po administered for 2 weeks started on day 4 post bacterial infection; type: organism-based; details: in vivo, 336 h
Mus musculus [17] = assay: Toxicity in BALB/c mouse infected with Mycobacterium tuberculosis H37Ra assessed as change in calcium level in serum at 6.25 to 25 mg/kg, po administered for 2 weeks started on day 4 post bacterial infection in presence of isoniazid; type: organism-based; details: in vivo, 336 h
Mus musculus [18] = assay: Toxicity in BALB/c mouse infected with Mycobacterium tuberculosis H37Ra assessed as change in alkaline phosphatase level in serum at 6.25 to 25 mg/kg, po administered for 2 weeks started on day 4 post bacterial infection in presence of isoniazid; type: organism-based; details: in vivo, 336 h
Mus musculus [19] = assay: Toxicity in BALB/c mouse infected with Mycobacterium tuberculosis H37Ra assessed as change in phosphate level in serum at 6.25 to 25 mg/kg, po administered for 2 weeks started on day 4 post bacterial infection in presence of isoniazid; type: organism-based; details: in vivo, 336 h
[20] = tested on: Mycobacterium tuberculosis; assay: Antimycobacterial activity against Mycobacterium tuberculosis H37Ra assessed as inhibition of mycobacterial replication at 6.25 ug/ml after 6 days by microplate Alamar blue assay in presence of isoniazid; type: functional; details: 144 h
[21] = tested on: Mycobacterium tuberculosis; assay: Ratio MIC90 for Mycobacterium tuberculosis H37Ra in presence of isoniazid to MIC90 for Mycobacterium tuberculosis H37Ra in absence of isoniazid; type: functional
[22] = tested on: Mycobacterium tuberculosis; assay: Antimycobacterial activity against Mycobacterium tuberculosis H37Ra infected in BALB/c mouse assessed as reduction of bacterial load in lung at 25 mg/kg, po administered for 2 weeks started on day 4 post bacterial infection measured 3 days post last dose; type: functional
[23] = tested on: Mycobacterium tuberculosis; assay: Antimycobacterial activity against Mycobacterium tuberculosis H37Ra assessed as inhibition of mycobacterial replication at 6.25 ug/ml after 6 days by microplate Alamar blue assay in absence of isoniazid; type: functional, organism-based
[24] = Cytotoxicity against African green monkey Vero cells assessed as cell viability after 3 days by XTT assay; type: cell-based; details: chlorocebus sabaeus
Mus musculus [25] = assay: Toxicity in BALB/c mouse infected with Mycobacterium tuberculosis H37Ra assessed as weight loss at 6.25 to 25 mg/kg, po administered for 2 weeks started on day 4 post bacterial infection in presence of isoniazid; type: organism-based; details: in vivo, 336 h
Mus musculus [26] = assay: Toxicity in BALB/c mouse infected with Mycobacterium tuberculosis H37Ra assessed as change in creatinine level in serum at 6.25 to 25 mg/kg, po administered for 2 weeks started on day 4 post bacterial infection; type: organism-based; details: in vivo, 336 h
Mus musculus [27] = assay: Toxicity in BALB/c mouse infected with Mycobacterium tuberculosis H37Ra at 6.25 to 25 mg/kg, po administered for 2 weeks started on day 4 post bacterial infection by necroscopy; type: organism-based; details: in vivo, 336 h
Mus musculus [28] = assay: Toxicity in BALB/c mouse infected with Mycobacterium tuberculosis H37Ra assessed as change in urea level in serum at 6.25 to 25 mg/kg, po administered for 2 weeks started on day 4 post bacterial infection; type: organism-based; details: in vivo, 336 h
Mus musculus [29] = assay: Toxicity in BALB/c mouse infected with Mycobacterium tuberculosis H37Ra assessed as change in cholesterol level in serum at 6.25 to 25 mg/kg, po administered for 2 weeks started on day 4 post bacterial infection; type: organism-based; details: in vivo, 336 h
Mus musculus [30] = assay: Toxicity in BALB/c mouse infected with Mycobacterium tuberculosis H37Ra assessed as change in urea level in serum at 6.25 to 25 mg/kg, po administered for 2 weeks started on day 4 post bacterial infection in presence of isoniazid; type: organism-based; details: in vivo, 336 h
Mus musculus [31] = assay: Toxicity in BALB/c mouse infected with Mycobacterium tuberculosis H37Ra assessed as change in creatinine level in serum at 6.25 to 25 mg/kg, po administered for 2 weeks started on day 4 post bacterial infection in presence of isoniazid; type: organism-based; details: in vivo, 336 h
[32] = tested on: Mycobacterium tuberculosis; assay: Antimycobacterial activity against Mycobacterium tuberculosis H37Ra infected in BALB/c mouse assessed as reduction of bacterial load in spleen at 1 mg/kg, po administered for 2 weeks started on day 4 post bacterial infection measured 3 days post last dose; type: functional, organism-based
[33] = tested on: Mycobacterium tuberculosis; assay: Antimycobacterial activity against Mycobacterium tuberculosis H37Ra assessed as inhibition of mycobacterial replication at 0.05 ug/ml after 6 days by microplate Alamar blue assay in absence of isoniazid; type: functional; details: 144 h
[34] = tested on: Mycobacterium tuberculosis; assay: Antimycobacterial activity against Mycobacterium tuberculosis H37Ra infected in BALB/c mouse assessed as reduction of bacterial load in liver at 1 mg/kg, po administered for 2 weeks started on day 4 post bacterial infection measured 3 days post last dose; type: functional, organism-based
[35] = tested on: Mycobacterium tuberculosis; assay: Antimycobacterial activity against Mycobacterium tuberculosis H37Ra infected in BALB/c mouse assessed as reduction of bacterial load in lung at 1 mg/kg, po administered for 2 weeks started on day 4 post bacterial infection measured 3 days post last dose; type: functional, organism-based
[36] = tested on: Mycobacterium tuberculosis; assay: Antimycobacterial activity against Mycobacterium tuberculosis H37Ra assessed as inhibition of mycobacterial replication at 50 ug/ml after 6 days by microplate Alamar blue assay; type: functional; details: 144 h
[37] = tested on: Mycobacterium tuberculosis; assay: Antimycobacterial activity against Mycobacterium tuberculosis H37Ra assessed as inhibition of mycobacterial replication at 200 ug/ml after 6 days by microplate Alamar blue assay; type: functional; details: 144 h

CC[C@H]1OC(=O)[C@H](C)[C@@H](O[C@H]2C[C@@](C)(OC)[C@@H](O)[C@H](C)O2)[C@H](C)[C@@H](O[C@@H]2O[C@H](C)C[C@H](N(C)C)[C@H]2O)[C@](C)(OC)C[C@@H](C)C(=O)[C@H](C)[C@@H](O)[C@]1(C)O [CLARITHROMYCIN]
MIC90 (Mycobacterium avium): 2 µg/mL (≈ 2.67 µM)

CO[C@H]1/C=C/O[C@@]2(C)Oc3c(C)c(O)c4c(O)c(c(/C=N/N5CCN(C)CC5)c(O)c4c3C2=O)NC(=O)/C(C)=C\C=C\[C@H](C)[C@H](O)[C@@H](C)[C@@H](O)[C@@H](C)[C@H](OC(C)=O)[C@@H]1C [RIFAMPIN]
MIC90 (Mycobacterium avium): 2 µg/mL (≈ 2.43 µM)
MIC90 [1]: 0.5 µg/mL (≈ 0.608 µM)

Nc1nc(=O)[nH]cc1C#Cc1ccccc1
Activity (Mus musculus [2]): Non-toxic
Activity (Mus musculus [3]): Non-toxic
Activity (Mus musculus [4]): Non-toxic
Activity (Mus musculus [5]): Non-toxic
inhibition (INH) [6]: 45%
Activity (Mus musculus [7]): Non-toxic
inhibition (INH) [8]: 70%
inhibition [9]: inactive
inhibition [10]: inactive
Activity (Mus musculus [11]): Non-toxic
Activity (Mus musculus [12]): Non-toxic
Activity (Mus musculus [13]): Non-toxic
Activity (Mus musculus [14]): Non-toxic
Activity (Mus musculus [15]): Non-toxic
Activity (Mus musculus [16]): Non-toxic
Activity (Mus musculus [17]): Non-toxic
Activity (Mus musculus [18]): Non-toxic
Activity (Mus musculus [19]): Non-toxic
inhibition at 6.25 µg/mL [20]: 100%
fractional inhibitory concentration index (FICI) [21]: 0.25
inhibition [22]: inactive
inhibition [23]: inactive
CC50 at 72 h [24]: > 200 µg/mL
Activity (Mus musculus [25]): Non-toxic
Activity (Mus musculus [26]): Non-toxic
MIC50 [1]: 25 µg/mL (≈ 118 µM)
Activity (Mus musculus [27]): Non-toxic
Activity (Mus musculus [28]): Non-toxic
Activity (Mus musculus [29]): Non-toxic
Activity (Mus musculus [30]): Non-toxic
Activity (Mus musculus [31]): Non-toxic

NNC(=O)c1ccncc1 [ISONIAZID]
Activity [32]: inactive
inhibition at 0.05 µg/mL [33]: 10%
Activity [34]: inactive
Activity [35]: inactive

CCCCCCCCCCCC#Cc1c[nH]c(=O)nc1N
CC50 at 72 h [24]: > 200 µg/mL

CCCCCCCCCCCCC#Cc1c[nH]c(=O)nc1N
CC50 at 72 h [24]: > 200 µg/mL

CCCCCCCCC#Cc1c[nH]c(=O)nc1N
inhibition at 50 µg/mL [36]: 50%
inhibition at 200 µg/mL [37]: 100%
CC50 at 72 h [24]: > 200 µg/mL
MIC50 [1]: 50 µg/mL (≈ 202 µM)
